Test results: EP0494777A1, “(S)-11-Hydroxy-10-methyl aporphine and pharmaceutical compositions containing it” (BRITISH TECHNOLOGY GROUP LTD, priority 1991, dated 1992)
pEC50, pIC50, pKi: −log10 of the molar value.

Experiments:
guinea pig ileum = target: T1, guinea pig ileum (Cavia porcellus, UniProt A0A286Y074); experiment: Single shock stimulation of guinea pig ileum: inhibition of longitudinal muscle contractions, or antagonism of the inhibitory action of 8-OH DPAT; details: for washings needed to return responses to induced electrical stimulation to control levels: after inhibition of contractions
T1 sequence (A0A286Y074 1-421): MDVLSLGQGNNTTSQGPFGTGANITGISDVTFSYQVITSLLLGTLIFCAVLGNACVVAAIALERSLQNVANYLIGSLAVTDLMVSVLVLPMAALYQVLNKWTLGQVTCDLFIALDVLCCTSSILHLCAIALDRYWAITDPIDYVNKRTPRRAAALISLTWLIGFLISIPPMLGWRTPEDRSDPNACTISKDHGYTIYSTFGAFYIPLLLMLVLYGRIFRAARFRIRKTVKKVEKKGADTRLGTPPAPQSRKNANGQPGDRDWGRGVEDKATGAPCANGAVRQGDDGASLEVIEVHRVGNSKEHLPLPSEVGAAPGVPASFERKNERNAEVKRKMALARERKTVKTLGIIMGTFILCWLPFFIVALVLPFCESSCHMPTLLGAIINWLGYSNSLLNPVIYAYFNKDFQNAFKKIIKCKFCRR
Procedure: Guinea pigs were anaesthetized with 35 mg of pentobarbital Na, administered i.p. and then sacrificed. Two centimeters of ileum, 10 cm from the cecum, was placed in Krebs-Ringer solution, and longitudinal muscle contractions were measured using a Stateham GT-03 force transducer. Contractions were recorded using a Beckman R-611 recorder.

5-HT1A sites = target: T2, 5-HT1A sites (Rattus norvegicus, UniProt P19327); experiment: Radioligand binding vs. [³H]8-OH DPAT in rat cortex membranes
T2 construct: 5% (w/v) homogenized rat cortex; from tissue; host or cells: rat cortex membranes
T2 sequence (P19327 1-422): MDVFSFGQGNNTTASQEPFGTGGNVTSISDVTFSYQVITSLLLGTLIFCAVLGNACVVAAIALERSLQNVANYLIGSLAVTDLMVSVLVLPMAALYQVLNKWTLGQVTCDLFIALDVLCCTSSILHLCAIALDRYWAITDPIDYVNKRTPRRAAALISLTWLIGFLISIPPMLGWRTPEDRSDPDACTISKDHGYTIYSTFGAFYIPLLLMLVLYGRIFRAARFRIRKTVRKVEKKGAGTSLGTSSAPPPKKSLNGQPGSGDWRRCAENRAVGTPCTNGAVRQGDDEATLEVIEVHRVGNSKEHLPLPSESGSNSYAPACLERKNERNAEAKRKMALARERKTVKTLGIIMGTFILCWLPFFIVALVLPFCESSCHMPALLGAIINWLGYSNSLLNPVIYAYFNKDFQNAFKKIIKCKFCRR
Procedure: Binding studies to determine the affinity of both the (R) and (S) enantiomer for 5-HT1A sites were conducted as previously described by Cannon et al., ibid. Rat cortex was homogenized in ice cold solution, centrifuged to isolate the membranes, and then washed. […] Non-specific binding was defined as binding remaining in the presence of 10 µM of 5-HT. […] The results are presented below in the Table together with those obtained in the studies using guinea pig ilea.

SMILES: CN1C2CCC1CC(OC(=O)C(CO)c1ccccc1)C2 (racemic) [atropine sulphate, reference compound]
- effect on contractions induced by transmural single shock stimulation (guinea pig ileum): inhibited

SMILES: CCCN(CCC)C1CCc2cccc(O)c2C1 (stereo not drawn) [8-OH DPAT, 8-hydroxy-2-di-n-propylaminotetralin, reference compound]
- washings needed to return responses to induced electrical stimulation to control levels (guinea pig ileum): Two or three
- inhibition at 0.06 µM (guinea pig ileum; read-out: maximal inhibition of contractions induced by transmural stimulation): ~35%

SMILES: Cc1ccc2c(c1O)-c1cccc3c1[C@@H](C2)N(C)CC3 [(R), (R)-11-hydroxy-10-methylaporphine, reference compound]
- washings needed to return responses to induced electrical stimulation to control levels (guinea pig ileum): Two or three
- pEC50 (guinea pig ileum; read-out: Single Shock stimulation of guinea pig ileum ED50 for inhibition of contractions, transmural single shock stimulation (0.1 Hz)): 7.30
- ED50 for antagonism of inhibition of contraction by 8-OH DPAT (guinea pig ileum; single shock stimulation of guinea pig ileum, concentration of 8-OH-DPAT 0.06 μM): inactive
- pKi (5-HT1A sites): 8.51

SMILES: Cc1ccc2c(c1O)-c1cccc3c1[C@H](C2)N(C)CC3.Cl [(S), (S)-11-Hydroxy-10-methylaporphine hydrochloride]
- effect on ileum stimulating properties of nicotine (guinea pig ileum; 1 µM): did not alter
- effect on ileum stimulating properties of potassium chloride (guinea pig ileum; 1 µM): did not alter
- effect on resting tone of the ileum (guinea pig ileum; 1 µM): did not alter
- pIC50 (guinea pig ileum; read-out: ED50 for antagonism of inhibition of contraction by 8-OH DPAT, single shock stimulation of guinea pig ileum, concentration of 8-OH-DPAT 0.06 μM): 7.52
- antagonism of inhibition of contractions by the (R)-enantiomer (guinea pig ileum; single shock stimulation of cholinergic neurons): antagonized
- Single Shock stimulation of guinea pig ileum ED50 for inhibition of contractions (guinea pig ileum; transmural single shock stimulation (0.1 Hz)): inactive
- duration of repeated washings required to re-establish sensitivity of the preparation to the (R)-enantiomer or 8-OH DPAT (guinea pig ileum; washout): 2 to 3 h
- pKi (5-HT1A sites): 7.41
